From patent US4032536A, “(1H-Benzimidazol-2-yl)carbamates” (Janssen Pharmaceutica N.V., priority 1976, dated 1977) come the findings set out here.

For orientation: ED50 means the dose that gives a 50% effect, or the effect in half of the subjects.

One experiment concerns Syphacia muris. Kind of experiment: Activity against Syphacia muris in rats. Type of experiment: in vivo. To be noted: po, 120 h, orally by gavage, autopsy five days after treatment. Here is the method: A. Activity against Syphacia muris in rats.
(§1) Syphacia muris was selected as a test organism since this organism manifests its relationship with the human oxyuris, Enterobin vermicularis,by its life cycle, by the cyclical period of activity and by laying its eggs in the peri-anal zone. For artificial infections, adhesive cellophane tape is used to recover the eggs from the peri-anal skin and this tape is administered orally to rats. The thus-infected animals are housed in individual cages with food and water ad libitum. The compound to be tested is administered orally by gavage. A sterile saline solution or suspension of the compound is made at various concentrations corresponding to 40, 10, 2.5, 1.25, 0.63, 0.31 and 0.16 mg/kg body weight. Control animals receive the same amount of saline. Five days thereafter the animals are sacrificed. Coecum, colon and rectum are isolated and washed on a sieve of mesh 100. Table I gives the ED50 -values for a number of the compounds of formula (I). The compounds listed therein are not given for the purpose of limiting the invention thereto but only to exemplify the useful anthelmintic properties of all the compounds within the scope of formula (I).

The next experiment deals with Strongyloides ratti. Kind of experiment: Activity against Strongyloides ratti in rats. Type of experiment: in vivo. To be noted: po, young male Wistar rats, orally, treated on day 7 after infection, autopsied day 13, 50% reduction of number of worms vs untreated controls. Here is the method: as §1
B. Activity against Strongyloides ratti in rats.
Young male Wistar rats, weighing about 100 g are used in this test. Infective larvae of Strongyloides ratti are collected from charcoal cultures, put into a beaker with tapwater and stirred magnetically for counting. The rats are infected subcutaneously with about 1000 larvae, treated on day 7 after infection in the same manner as described in experiment A, and autopsied on day 13. The anterior part of the intestine is divided into two sections, each of 10 cm. length and placed inside out on a wood-applicator. These sections are incubated in physiological saline for 4 hours at 37° C. Worms obtained from the sedimentation of incubation saline are sampled and counted under a dissection microscope. In table I are given ED50 -values for a number of compounds of formula (I). These ED50 -values represent the amount of the compound under investigation in mg/kg which reduces the number of worms 50% with respect to the number found in the untreated control animals.

For the compound `COC(=O)Nc1nc2ccc(C3(c4cccs4)OCCO3)cc2[nH]1`, the ED50 in the experiment with Syphacia muris and in the experiment with Strongyloides ratti was 2.5 mg/kg throughout.
With `COC(=O)Nc1nc2ccc(C3(c4ccccc4)OCCO3)cc2[nH]1`, the results for the ED50 in the experiment on Syphacia muris and in the experiment with Strongyloides ratti were 1.25 mg/kg and 0.63 mg/kg, respectively.
For `COC(=O)Nc1nc2ccc(C3(c4ccc(F)cc4)OCCO3)cc2[nH]1` the same measures were 5 mg/kg and 0.31 mg/kg.
For `COC(=O)Nc1nc2ccc(C3(c4ccccc4)OCC(C)O3)cc2[nH]1` (stereo not shown) the same measures were 2.5 mg/kg and 0.31 mg/kg.
The matching figures for `COC(=O)Nc1nc2ccc(C3(c4ccccc4)OC(C)C(C)O3)cc2[nH]1` (stereo not shown): 2.5 mg/kg and 1.25 mg/kg.
Take `COC(=O)Nc1nc2ccc(C3(c4cccs4)OC(C)C(C)O3)cc2[nH]1` (stereo not shown): the ED50 is 2.5 mg/kg in the experiment with Syphacia muris and 10 mg/kg with Strongyloides ratti.
For `COC(=O)Nc1nc2ccc(C3(c4cccs4)OCC(C)O3)cc2[nH]1` (stereo not shown) the same measures were 10 mg/kg and 10 mg/kg.
For `COC(=O)Nc1nc2ccc(C3(c4ccccc4)OCC(C)(C)CO3)cc2[nH]1` the same measures were 10 mg/kg and 2.5 mg/kg.
For `COC(=O)Nc1nc2ccc(C3(c4cccs4)OCC(C)(C)CO3)cc2[nH]1` the same measures were 40 mg/kg and 10 mg/kg.
On to `COC(=O)Nc1nc2ccc(C3(c4cccs4)OCCC(C)O3)cc2[nH]1` (stereo not shown), for which the ED50 in the experiment on Syphacia muris and in the experiment with Strongyloides ratti was 10 mg/kg throughout.
For the compound `COC(=O)Nc1nc2ccc(C3(c4ccccc4)OCCC(C)O3)cc2[nH]1` (stereo not shown), the ED50 in the experiment with Syphacia muris was determined as 40 mg/kg; in the experiment on Strongyloides ratti, 1.25 mg/kg.
